From US20210169984A1, “SENSITIZING CANCER TO DEATH RECEPTOR AGONISTS WITH KINASE INHIBITORS” (The Johns Hopkins University, priority 2016, published 2021)
“Also recorded” adds a separate entry of the source.

Legend:
[1] = system: LNCAP prostate adenocarcinoma cells; assay: KI library screen for TRAIL sensitization; type: cell-based, human
Excerpt: (§1) A library of KIs was screened for TRAIL sensitization in various TRAIL-resistant cancer cells, including: HT29 (CRC), MDA-MB-231 (breast), LNCAP (prostate), DU145 (prostate), PC3 (prostate) and A549 (lung). […] The 355 KIs comprised of compounds targeting diverse kinases, including multi kinases, RTK (receptor kinase tyrosine), PI3K (phosphinistide 3-kinase), aurora kinases, including […] (mitogen-activated protein kinase). […] The interaction between KIs and TRAIL had been previously explored in vitro with the tyrosine KI sorafenib, a drug similar to regorafenib. However, such studies were mostly performed on cellular levels and not in in vivo models, combined with systemically administered recombinant TRAIL. Although a similar structure, regorafenib was newly approved in 2012. The interactions between the three other selected KIs and TRAIL have not been previously reported, in vitro or in vivo.

[2] = system: HP LNCAP prostate adenocarcinoma cells; assay: KI library screen for TRAIL sensitization; type: cell-based, human
Excerpt: as §1
(§2) Regorafenib potentiated TRAIL-induced apoptosis in prostate cancer cells (LNCAP, HPLNCAP (High Passages LNCAP), DU-145 and PC-3) when combined with TRAILPEG (1 μg/mL) (FIG. 5). After treating cells with regorafenib (5 μM), caspases and anti-apoptotic proteins were analyzed by western blotting (FIG. 6A-FIG. 6C). […] Data confirmed that FDA-approved KIs or KIs under clinical development synergized with long-acting TRAILPEG by overcoming TRAIL-resistance through unique TRAIL sensitization mechanisms.

HT29 (CRC) cells = assay: KI library screen for TRAIL sensitization (KI pretreatment, then TRAILPEG; MTT cell death assay); type: cell-based, human
Procedure: The screening is performed using an MTT cell death assay in CRC cells with different TRAIL sensitivities.

[3] = system: PC3 prostate adenocarcinoma cells; assay: KI library screen for TRAIL sensitization; type: cell-based, human
Procedure: FIG. 2B depicts a bar graph showing quantified cell death after analyzing synergized cell death induced by TRAILPEG (1 μg/mL for 3 hr) and kinase inhibitors (KIs) in HT29 (human colon tumor cell line) and PC3 (human prostate tumor cell line) cells individually pretreated with selected 355 KIs. Relative cell death rates were calculated by [KI+TRAILPEG]/[KI alone] after separate MTT assays. The arrows indicate KIs with >60% cell death; n=3.
as §1

HT-29 cells = assay: Quantified cell death after combinatorial treatment with regorafenib and TRAILPEG (FIG. 3A); type: cell-based, human; conditions: regorafenib combined with TRAILPEG 1 μg/mL
Procedure: FIG. 3A depicts a bar graph showing that regorafenib (an oral, multi-kinase inhibitor) enhanced TRAILPEG -induced apoptosis in colorectal cancer (CRC) cells. Quantified cell death after combinatorial treatment with regorafenib and TRAILPEG (1 μg/mL) in HT-29 cells is shown.
as §2, with “HT-29” for “prostate cancer”, “cells” for “cells (LNCAP, HPLNCAP (High Passages LNCAP), DU-145 and PC-3)”, “3A).” for “5).”, “(2” for “(5”, “3B).” for “6A-FIG. 6C).”

HT29 cells [4] = assay: Western blot of caspases and anti-apoptotic proteins, regorafenib alone or with TRAILPEG (FIG. 3B); type: cell-based, human
Procedure: FIG. 3B depicts a Western blot analysis of HT29 cells with regorafenib alone or in combination with TRAILPEG.
as §2, with “HT-29” for “prostate cancer”, “cells” for “cells (LNCAP, HPLNCAP (High Passages LNCAP), DU-145 and PC-3)”, “3A).” for “5).”, “(2” for “(5”, “3B).” for “6A-FIG. 6C).”

HT29 cells [5] = assay: qPCR of death receptors and decoy receptors (FIG. 4A); type: cell-based, human; conditions: regorafenib 2 μM
Procedure: FIG. 4A depicts a bar graph showing qPCR analysis of death receptors (DRs) and decoy receptors (DcRs) in HT29 cells treated with regorafenib for 24 hours or 48 hours as indicated; *P<0.05, **P<0.01, ***P<0.001 versus control.
(§3) HT29 cells were treated with regorafenib (2 μM) for 24 hour or 48 hour as indicated. mRNAs for TRAIL receptors were measured by quantitative RT-PCR (qPCR) (FIG. 4A). […] After treating HT29 cells with regorafenib as indicated, DR4/5 or anti-apoptotic proteins were analyzed by Western blot (FIG. 4B). […] Conversely, anti-apoptotic proteins MCL-1 and BCL-2 were absent in HT29 cells treated with regorafenib for 48 hours. It has been previously reported that TRAIL receptors could be induced by signaling including NF-κB, ER stress, and JNK-ROS.

HT29 cells [6] = assay: Western blot of DR4/5 and anti-apoptotic proteins (FIG. 4B); type: cell-based, human; conditions: regorafenib, 48 hours
Procedure: as §3

[7] = system: prostate cancer cells (LNCAP, HPLNCAP, DU-145 and PC-3); assay: Quantified cell death after regorafenib and TRAILPEG in prostate cancer cells; type: cell-based, human; conditions: regorafenib 5 μM combined with TRAILPEG 1 μg/mL
Procedure: FIG. 7 is a bar graph showing that regorafenib enhanced TRAILPEG-induced apoptosis in prostate cancer cells. Quantified cell death after combinatorial treatment with regorafenib (5 μM) and TRAILPEG (1 μg/mL) in various prostate cancer cells is shown. *P<0.05, **P<0.01, ***P<0.001 versus control (regorafenib only).
as §2

[8] = system: prostate cancer cells (LNCAP, DU145, PC-3); assay: Western blot of prostate cancer cells, regorafenib alone or with TRAILPEG (FIG. 6A-6C); type: cell-based, human
Procedure: (§4) FIG. 5 depicts a bar graph showing results of tumor volumes in mice bearing TRAIL-resistant HT29 tumors treated with three rounds of TRAILPEG (150 μg, i.v), oral regorafenib (10 mg/kg) or oral regorafenib with TRAILPEG within days (12-17) after tumor inoculation. Mice were sacrificed on day 27. […] FIG. 6A depicts a Western blot analysis of LNCAP prostate cancer cells with regorafenib alone or in combination with TRAILPEG.
FIG. 6B depicts a Western blot analysis of DU145 prostate cancer cells with regorafenib alone or in combination with TRAILPEG.
FIG. 6C depicts a Western blot analysis of PC-3 prostate cancer cells with regorafenib alone or in combination with TRAILPEG.
as §2

HT29 xenografts = assay: TRAIL-resistant HT29 tumor xenograft; type: in vivo; conditions: oral regorafenib 10 mg/kg days 12, 14, 16; TRAILPEG 150 μg i.v. days 13, 15, 17; sacrifice day 27
Procedure: as §4
The therapeutic combination of oral regorafenib and TRAILPEG in HT29 xenografts in comparison to regorafenib and TRAILPEG alone (FIG. 7) were investigated. HT29 xenografts were treated with oral regorafenib (10 mg/kg) or saline on the 12th, 14th, and 16th days of tumor inoculation. On the 13th, 15th, and 17th days, animals were given an i.v. dose of TRAILPEG (150 μg). Animals were sacrificed on day 27.

[9] = system: A549 lung carcinoma cells; assay: KI library screen for TRAIL sensitization; type: cell-based, human
Excerpt: as §1

[10] = mouse, in vivo; cited from earlier work
[11] = system: DU-145 prostate adenocarcinoma cells; assay: KI library screen for TRAIL sensitization; type: cell-based, human
Excerpt: as §1

[12] = system: MDA-MB-231 breast cancer cells; assay: KI library screen for TRAIL sensitization; type: cell-based, human
Excerpt: as §1

[13] = regorafenib 5 μM combined with TRAILPEG

Compound: Cn1cc(-c2ccc3nnc(Sc4ccc5ncccc5c4)n3n2)cn1 [SGX-523]
- KIs that sensitize cancer cells to TRAIL-based agents [1]: Example KIs that sensitize cancer cells to TRAIL-based agents.
- KIs that sensitize cancer cells to TRAIL-based agents [2]: Example KIs that sensitize cancer cells to TRAIL-based agents.

Compound: CNC(=O)c1cc(Oc2ccc(NC(=O)Nc3ccc(Cl)c(C(F)(F)F)c3)c(F)c2)ccn1 [Regorafenib (BAY 73-4506), Regorafenib]
- efficacy when combined with TRAILPEG (relative cell death, KI+TRAILPEG / KI alone) (HT29 (CRC) cells; HT29 cells pretreated with KI for 24 hours before TRAILPEG): synergistic efficacy
- KIs that sensitize cancer cells to TRAIL-based agents (HT29 (CRC) cells; HT-29 colorectal adenocarcinoma): Example KIs that sensitize cancer cells to TRAIL-based agents.
- KIs that sensitize cancer cells to TRAIL-based agents [2]: Example KIs that sensitize cancer cells to TRAIL-based agents.
- KIs that sensitize cancer cells to TRAIL-based agents [3]: Example KIs that sensitize cancer cells to TRAIL-based agents.
- TRAIL-induced apoptosis (HT-29 cells; listed as Regorafenib): potentiated
- TRAIL-induced apoptosis (HT-29 cells; listed as regorafenib): enhanced
- RIP-1 (HT29 cells [4]): dose-dependently downregulated
- anti-apoptotic proteins c-FLIP, MCL-1, BCL-2, and BCL-XL (HT29 cells [4]; regorafenib 2 μM): downregulated
- caspase-dependent TRAILPEG-induced apoptosis (PARP-1 cleavage, caspase activation) (HT29 cells [4]; regorafenib 2 μM): significantly sensitized
- DR4 mRNA (HT29 cells [5]; 24 or 48 hour): significantly upregulate; also recorded: upregulated
- DRS mRNA (HT29 cells [5]; 24 or 48 hour): minimally induced
- DcR2 expression (HT29 cells [5]; 48 hour): down-regulating; also recorded: rarely detectable
- DR4 protein (HT29 cells [6]; listed as Regorafenib): highly expressed
- DR4 protein (HT29 cells [6]; listed as regorafenib): up-regulation
- anti-apoptotic proteins MCL-1 and BCL-2 (HT29 cells [6]; listed as regorafenib): absent; also recorded: down-regulated
- TRAIL-induced apoptosis ([7]; listed as Regorafenib): potentiated
- TRAIL-induced apoptosis ([7]; listed as regorafenib): enhanced
- anti-apoptotic protein MCL-1 [8, 13]: downregulated
- caspase-dependent TRAILPEG-induced apoptosis (PARP-1 cleavage, caspase activation) [8, 13]: significantly sensitized
- apoptosis by single agent ([8]; regorafenib or TRAILPEG alone): did not induce strong apoptosis
- tumor growth / tumor volume (HT29 xenografts): moderate tumor reduction

Compound: COCCOc1ccc2c(c1)ncn2-c1ccc2cccc(N3CCC(N)CC3)c2n1 [CP-673451]
- KIs that sensitize cancer cells to TRAIL-based agents [9]: Example KIs that sensitize cancer cells to TRAIL-based agents.
- KIs that sensitize cancer cells to TRAIL-based agents [3]: Example KIs that sensitize cancer cells to TRAIL-based agents.

Compound: CC(C)(C)c1cc(/C=C(\C#N)C(N)=S)cc(C(C)(C)C)c1O [Tyrphostin AG 879]
- KIs that sensitize cancer cells to TRAIL-based agents [2]: Example KIs that sensitize cancer cells to TRAIL-based agents.

Compound: 20K-PEG-TRAIL: TRAIL derivatized with 20K PEG (Kim, et al.)
- circulating half-life [10]: 12.3 h

Compound: C=CC(=O)Nc1ccc2ncnc(Nc3ccc(OCc4cccc(F)c4)c(Cl)c3)c2c1 [AST-1306]
- KIs that sensitize cancer cells to TRAIL-based agents [11]: Example KIs that sensitize cancer cells to TRAIL-based agents.
- KIs that sensitize cancer cells to TRAIL-based agents [3]: Example KIs that sensitize cancer cells to TRAIL-based agents.

Compound: 10K-PEG-TRAIL: TRAIL derivatized with 10K PEG (Kim, et al.)
- circulating half-life [10]: 6.2 h

Compound: 5K-PEG-TRAIL: TRAIL derivatized with 5K PEG (Kim, et al.)
- circulating half-life [10]: 5.3 h

Compound: 30K-PEG-TRAIL: TRAIL derivatized with 30K PEG (Kim, et al.)
- circulating half-life [10]: 17.7 h

Compound: COc1cc2c(Oc3ccc(NC(=O)C4(C(=O)Nc5ccc(F)cc5)CC4)cc3F)ccnc2cc1OCCCN1CCOCC1 [Foretinib (GSK1363089), Foretinib]
- KIs that sensitize cancer cells to TRAIL-based agents [11]: Example KIs that sensitize cancer cells to TRAIL-based agents.

Compound: C=CC(=O)Nc1cccc(Oc2nc(Nc3ccc(N4CCN(C)CC4)cc3OC)ncc2Cl)c1 [WZ4002]
- KIs that sensitize cancer cells to TRAIL-based agents [9]: Example KIs that sensitize cancer cells to TRAIL-based agents.
- KIs that sensitize cancer cells to TRAIL-based agents [2]: Example KIs that sensitize cancer cells to TRAIL-based agents.

Compound: COc1cc2ncnc(Nc3ccc(F)c(Cl)c3)c2cc1NC(=O)/C=C/CN1CCCCC1 [Dacomitinib (PF299804, PF299), Dacomitinib]
- KIs that sensitize cancer cells to TRAIL-based agents [11]: Example KIs that sensitize cancer cells to TRAIL-based agents.
- KIs that sensitize cancer cells to TRAIL-based agents [12]: Example KIs that sensitize cancer cells to TRAIL-based agents.

Compound: C=CC(=O)Nc1ccc2ncnc(Nc3cccc(Br)c3)c2c1 [PD168393]
- KIs that sensitize cancer cells to TRAIL-based agents [2]: Example KIs that sensitize cancer cells to TRAIL-based agents.

Compound: CC(C)(C)c1cc(C=C(C#N)C#N)cc(C(C)(C)C)c1O [Tyrphostin 9]
- KIs that sensitize cancer cells to TRAIL-based agents [11]: Example KIs that sensitize cancer cells to TRAIL-based agents.
- KIs that sensitize cancer cells to TRAIL-based agents [1]: Example KIs that sensitize cancer cells to TRAIL-based agents.
- KIs that sensitize cancer cells to TRAIL-based agents [2]: Example KIs that sensitize cancer cells to TRAIL-based agents.
- KIs that sensitize cancer cells to TRAIL-based agents [3]: Example KIs that sensitize cancer cells to TRAIL-based agents.

Compound: 2K-PEG-TRAIL: TRAIL derivatized with 2K PEG (Kim, et al.)
- circulating half-life [10]: 3.9 h

Compound: CCOc1cc2ncc(C#N)c(Nc3ccc(OCc4ccccn4)c(Cl)c3)c2cc1NC(=O)/C=C/CN(C)C [Neratinib (HKI-272), Neratinib]
- KIs that sensitize cancer cells to TRAIL-based agents [11]: Example KIs that sensitize cancer cells to TRAIL-based agents.

Compound: COc1cc(N2CCC(N)CC2)ccc1Nc1ncc(Cl)c(-c2c[nH]c3ccccc23)n1 [AZD3463]
- KIs that sensitize cancer cells to TRAIL-based agents [11]: Example KIs that sensitize cancer cells to TRAIL-based agents.
- KIs that sensitize cancer cells to TRAIL-based agents [3]: Example KIs that sensitize cancer cells to TRAIL-based agents.
